According to ChEMBL document CHEMBL4627391, “Bioactive Compounds from the Aerial Parts of Evolvulus linarioides” (J Nat Prod, 2020):

Experiments:
[1] = Cytotoxicity against mouse J774 cells assessed as reduction in cell viability after 72 hrs by Alamar Blue assay; format: cell-based
J774 [2] = test: Antiinflammatory activity in mouse J774 cells assessed as LPS/IFNgamma-induced IL-1beta level at 25 uM incubated for 24 hrs by ELISA (reference value: 9.6 to 26.1 pg/mg); format: functional
J774 [3] = test: Antiinflammatory activity in mouse J774 cells assessed as inhibition of LPS/IFNgamma-induced IL-1beta level incubated for 24 hrs by ELISA relative to control; format: functional
J774 [4] = test: Antiinflammatory activity in mouse J774 cells assessed as LPS/IFNgamma-induced IL-1beta level at 6.3 uM incubated for 24 hrs by ELISA (reference value: 9.6 to 26.1 pg/mg); format: functional
J774 [5] = test: Antiinflammatory activity in mouse J774 cells assessed as inhibition of LPS/IFNgamma-induced NO production incubated for 24 hrs by Griess method; format: functional, cell-based; conditions: J774, 24 h
J774 [6] = test: Antiinflammatory activity in mouse J774 cells assessed as LPS/IFNgamma-induced IL-1beta level at 100 uM incubated for 24 hrs by ELISA (reference value: 9.6 to 26.1 pg/mg); format: functional
J774 [7] = test: Antiinflammatory activity in mouse J774 cells assessed as inhibition of LPS/IFNgamma-induced IL-1beta level at 10 uM incubated for 24 hrs by ELISA relative to control; format: functional; conditions: J774, 24 h

Compound | CC50 at 72 h [1] [µM] | Activity (J774 [2]) [pg/mg] | Imax (J774 [3]) [%] | Activity (J774 [4]) [pg/mg] | IC50 (J774 [5]) [µM] | Activity (J774 [6]) [pg/mg] | inhibition at 10 µM (J774 [7]) [%]
C/C=C(/C)C(=O)OC[C@@H](OC(C)=O)[C@@H](OC(=O)/C(C)=C\C)C(O)(COC(=O)/C(C)=C\C)COC(=O)/C(C)=C\C | 206 | 14.6 | 80.6 | 15.6 | 34.2 | 3.8 | –
CC[C@@H](CO)C(=O)OC[C@@H]1O[C@H](OCc2cc(=O)c3c(O)cc(O)cc3o2)[C@@H](O)[C@H](O)[C@H]1O | 209 | 8.6 | 96.2 | 8.4 | 25.3 | 0.3 | –
C/C=C(/C)C(=O)OCC(O)(COC(=O)/C(C)=C\C)[C@H](OC(=O)/C(C)=C\C)[C@@H](COC(C)=O)OC(C)=O (some centres not stated) | 198 | 9.3 | 88.5 | 7.3 | 28.2 | 1.1 | –
C=C1CC[C@@H]2[C@H](CC2(C)C)[C@@](O)(CO)CC[C@@H]1O | 193 | 7 | 93 | 14.3 | 17.8 | 0.7 | –
CC(=O)OC[C@@]1(O)CC[C@H]2O[C@@]2(C)CC[C@@H]2[C@@H]1CC2(C)C | 273 | 6.5 | 75 | 10.2 | 52.2 | 2.4 | –
C/C1=C/C[C@@H]2[C@H](CC2(C)C)[C@@](O)(CO)CC[C@@H]1O | 194 | 14 | 92.5 | 28.6 | 30.3 | 1.5 | –
O=c1cc(CO)oc2cc(O)cc(O)c12 [CNIDIMOL C] | 256 | 10.5 | 72.7 | 15.7 | 22.4 | 3.9 | –
C[C@@H]1C[C@H]2[C@@H]3CCC4=CC(=O)C=C[C@]4(C)[C@@]3(F)[C@@H](O)C[C@]2(C)[C@@]1(O)C(=O)CO [DEXAMETHASONE] | – | – | – | – | 5.2 | – | 87.1
CN(C)c1ccc(C(=C2C=CC(=[N+](C)C)C=C2)c2ccc(N(C)C)cc2)cc1 [GENTIAN VIOLET] | 0.8 | – | – | – | – | – | –
O=c1cc(CO[C@@H]2O[C@H](CO)[C@@H](O)[C@H](O)[C@H]2O)oc2cc(O)cc(O)c12 [MONNIERISIDE A] | 201 | 9.1 | 85.5 | 14.6 | 66.3 | 2 | –
Cc1cc(=O)c2c(O)cc(O[C@@H]3O[C@H](CO)[C@@H](O)[C@H](O)[C@H]3O)cc2o1 [UNDULATOSIDE A] | 191 | 9.5 | 89.6 | 14.5 | 51.2 | 1.5 | –
